Experimental data taken from ChEMBL document CHEMBL3431459, “Roche carnitine palmitoyltransferase modulator screening data (supplementary data associated with the publication CHEMBL2216752)”.
≈ marks a conversion by molar mass, not a printed value.

Assays:
[1] = target: T1, Carnitine O-palmitoyltransferase 2, mitochondrial (Rattus norvegicus, UniProt P18886); assay: (§1) SUPPLEMENTARY: Inhibition of Carnitine palmitoyltransferase 2
T1 sequence (P18886 whole entry): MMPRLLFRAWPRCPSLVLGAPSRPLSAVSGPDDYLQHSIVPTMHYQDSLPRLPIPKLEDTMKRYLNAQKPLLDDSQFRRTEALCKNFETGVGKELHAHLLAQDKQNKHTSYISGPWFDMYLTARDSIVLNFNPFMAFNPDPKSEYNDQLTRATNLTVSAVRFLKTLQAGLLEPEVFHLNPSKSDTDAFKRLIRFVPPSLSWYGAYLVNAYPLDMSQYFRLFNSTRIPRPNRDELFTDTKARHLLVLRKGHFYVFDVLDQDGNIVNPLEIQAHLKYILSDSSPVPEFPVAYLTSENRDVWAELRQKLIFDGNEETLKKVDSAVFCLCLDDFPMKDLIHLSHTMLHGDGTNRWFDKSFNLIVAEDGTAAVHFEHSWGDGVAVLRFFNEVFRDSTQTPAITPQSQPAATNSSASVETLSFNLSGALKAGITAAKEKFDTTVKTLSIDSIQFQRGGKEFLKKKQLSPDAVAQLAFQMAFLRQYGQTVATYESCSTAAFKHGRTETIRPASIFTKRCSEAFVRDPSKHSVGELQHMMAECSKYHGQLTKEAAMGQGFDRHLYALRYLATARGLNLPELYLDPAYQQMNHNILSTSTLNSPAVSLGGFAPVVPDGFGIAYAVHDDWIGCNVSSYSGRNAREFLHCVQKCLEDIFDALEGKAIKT

[2] = target: T2, Carnitine O-palmitoyltransferase 2, mitochondrial (Homo sapiens, UniProt P23786); assay: as §1
T2 sequence (P23786 whole entry): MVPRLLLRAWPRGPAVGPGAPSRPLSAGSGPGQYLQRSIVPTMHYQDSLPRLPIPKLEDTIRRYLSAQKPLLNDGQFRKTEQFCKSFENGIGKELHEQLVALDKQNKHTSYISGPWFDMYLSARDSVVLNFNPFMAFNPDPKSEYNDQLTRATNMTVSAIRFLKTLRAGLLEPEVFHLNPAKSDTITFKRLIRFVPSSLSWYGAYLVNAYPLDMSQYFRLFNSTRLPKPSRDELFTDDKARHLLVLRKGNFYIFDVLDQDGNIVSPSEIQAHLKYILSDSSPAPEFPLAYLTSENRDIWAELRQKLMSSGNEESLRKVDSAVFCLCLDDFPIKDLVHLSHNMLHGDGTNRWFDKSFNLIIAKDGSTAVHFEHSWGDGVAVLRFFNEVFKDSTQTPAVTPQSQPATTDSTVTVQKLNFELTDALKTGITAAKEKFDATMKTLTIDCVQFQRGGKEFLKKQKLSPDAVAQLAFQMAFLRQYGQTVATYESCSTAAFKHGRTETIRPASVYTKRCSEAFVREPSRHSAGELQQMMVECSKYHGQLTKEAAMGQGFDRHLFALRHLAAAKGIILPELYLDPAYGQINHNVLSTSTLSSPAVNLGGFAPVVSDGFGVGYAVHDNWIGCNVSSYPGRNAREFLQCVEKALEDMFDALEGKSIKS

[3] = SUPPLEMENTARY: Lyophilisation Solubility Assay (LYSA); assay type: physicochemical; conditions: read-out: Kinetic_solubility
[4] = target: T3, Carnitine O-palmitoyltransferase 1, muscle isoform (Homo sapiens, UniProt Q92523); assay: SUPPLEMENTARY: Inhibition of Carnitine palmitoyltransferase 1, muscle isoform; design: species or system Muscle tissue
T3 sequence (Q92523 whole entry): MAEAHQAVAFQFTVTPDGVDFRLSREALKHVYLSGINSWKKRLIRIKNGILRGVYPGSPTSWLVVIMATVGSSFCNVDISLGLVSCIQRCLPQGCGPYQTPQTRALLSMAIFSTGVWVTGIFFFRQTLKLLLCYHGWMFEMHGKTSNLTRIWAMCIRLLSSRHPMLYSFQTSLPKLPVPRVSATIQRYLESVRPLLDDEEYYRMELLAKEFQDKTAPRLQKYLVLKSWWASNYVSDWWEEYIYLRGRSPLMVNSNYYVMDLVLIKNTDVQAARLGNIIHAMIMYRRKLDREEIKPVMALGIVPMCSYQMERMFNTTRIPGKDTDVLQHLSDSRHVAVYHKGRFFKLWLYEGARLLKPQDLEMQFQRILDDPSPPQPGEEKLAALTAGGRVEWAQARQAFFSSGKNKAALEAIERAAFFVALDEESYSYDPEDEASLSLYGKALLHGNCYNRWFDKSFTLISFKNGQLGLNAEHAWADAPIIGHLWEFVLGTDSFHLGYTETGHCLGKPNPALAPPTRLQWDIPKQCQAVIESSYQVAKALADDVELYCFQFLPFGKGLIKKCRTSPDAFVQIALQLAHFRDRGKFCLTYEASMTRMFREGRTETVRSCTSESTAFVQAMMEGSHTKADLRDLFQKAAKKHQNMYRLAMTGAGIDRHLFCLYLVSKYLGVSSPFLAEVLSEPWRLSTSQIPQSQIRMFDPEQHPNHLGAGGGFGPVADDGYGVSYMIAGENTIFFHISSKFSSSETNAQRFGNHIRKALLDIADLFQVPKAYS

[5] = SUPPLEMENTARY: PAMPA permeability assay; assay type: physicochemical; conditions: read-out: Permeability
[6] = target: T4, Carnitine O-palmitoyltransferase 1, liver isoform (Rattus norvegicus, UniProt P32198); assay: (§2) SUPPLEMENTARY: Inhibition of Carnitine palmitoyltransferase 1, liver isoform
T4 sequence (P32198 whole entry): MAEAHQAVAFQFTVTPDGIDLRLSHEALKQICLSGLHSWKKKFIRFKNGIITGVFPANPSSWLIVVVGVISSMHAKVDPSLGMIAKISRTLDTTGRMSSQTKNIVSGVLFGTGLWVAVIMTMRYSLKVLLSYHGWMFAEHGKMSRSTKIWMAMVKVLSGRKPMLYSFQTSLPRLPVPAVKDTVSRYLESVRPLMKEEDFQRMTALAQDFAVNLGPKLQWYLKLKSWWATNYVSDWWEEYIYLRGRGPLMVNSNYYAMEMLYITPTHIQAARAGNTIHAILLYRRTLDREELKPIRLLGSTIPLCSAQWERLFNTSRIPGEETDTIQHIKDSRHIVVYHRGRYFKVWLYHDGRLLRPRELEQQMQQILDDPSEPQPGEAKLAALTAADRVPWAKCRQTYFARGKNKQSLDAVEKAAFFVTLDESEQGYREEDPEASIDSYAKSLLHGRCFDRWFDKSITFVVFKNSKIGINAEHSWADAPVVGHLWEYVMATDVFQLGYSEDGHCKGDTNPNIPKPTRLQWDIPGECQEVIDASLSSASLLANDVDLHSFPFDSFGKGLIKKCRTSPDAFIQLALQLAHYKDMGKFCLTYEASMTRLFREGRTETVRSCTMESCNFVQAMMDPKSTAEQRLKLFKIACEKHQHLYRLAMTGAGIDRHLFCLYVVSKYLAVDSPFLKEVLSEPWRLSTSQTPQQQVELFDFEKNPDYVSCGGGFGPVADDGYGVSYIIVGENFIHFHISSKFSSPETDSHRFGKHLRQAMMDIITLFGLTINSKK

[7] = target: T5, Carnitine O-palmitoyltransferase 1, liver isoform (Homo sapiens, UniProt P50416); assay: as §2
T5 sequence (P50416 whole entry): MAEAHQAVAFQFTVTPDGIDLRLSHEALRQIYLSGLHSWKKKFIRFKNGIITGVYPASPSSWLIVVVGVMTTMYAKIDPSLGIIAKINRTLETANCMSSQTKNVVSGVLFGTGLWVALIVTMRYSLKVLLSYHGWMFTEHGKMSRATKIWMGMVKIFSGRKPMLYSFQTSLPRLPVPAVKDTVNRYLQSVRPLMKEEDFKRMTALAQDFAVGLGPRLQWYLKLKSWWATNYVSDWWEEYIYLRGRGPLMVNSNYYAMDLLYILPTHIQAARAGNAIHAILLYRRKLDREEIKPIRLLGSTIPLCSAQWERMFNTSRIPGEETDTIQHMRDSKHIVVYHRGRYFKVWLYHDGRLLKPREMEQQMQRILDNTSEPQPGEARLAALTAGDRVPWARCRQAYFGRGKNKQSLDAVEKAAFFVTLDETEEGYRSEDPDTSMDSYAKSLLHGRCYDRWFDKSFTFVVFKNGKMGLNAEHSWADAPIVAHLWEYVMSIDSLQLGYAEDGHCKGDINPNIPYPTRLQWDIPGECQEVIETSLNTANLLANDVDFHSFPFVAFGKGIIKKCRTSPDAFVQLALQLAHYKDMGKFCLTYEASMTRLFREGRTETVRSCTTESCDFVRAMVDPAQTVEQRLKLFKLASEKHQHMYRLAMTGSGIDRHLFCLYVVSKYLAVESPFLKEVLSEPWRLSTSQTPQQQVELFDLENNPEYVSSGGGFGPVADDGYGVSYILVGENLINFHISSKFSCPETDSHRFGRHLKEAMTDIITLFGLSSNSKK

[8] = SUPPLEMENTARY: Lipophilicity (log D) Determination by high-throughput shake-flask; assay type: physicochemical; conditions: octanol/water

| Compound | IC50 [1] [nM] | IC50 [2] [nM] | solubility kinetic [3] [µg/mL] | IC50 [4] [nM] | Papp [5] [×10⁻⁶ cm/s] | IC50 [6] [nM] | IC50 [7] [nM] | logD [8] |
| --- | --- | --- | --- | --- | --- | --- | --- | --- |
| CCOC(=O)c1cncc(-c2noc([C@H]3CCCCN3C(=O)COc3ccccc3)n2)c1 | > 100000 | 24300 | 9 (≈ 20.6 µM) | > 100000 | 1.56 | 399 | 78.6 | 3.38 |
| COc1ccc(Cl)cc1S(=O)(=O)N1COCc2ccc(C(=O)Nc3ccc(CC(=O)O)cc3)cc21 | > 100000 | > 100000 | 100 (≈ 193 µM) | 3280 | 1.39 | 483 | 187 | -0.23 |
| COc1ccc(Cl)cc1Cc1cn(C)c2ccc(C(=O)Nc3nc(CC(=O)O)cs3)cc12 | > 100000 | > 100000 | 19 (≈ 40.4 µM) | 2410 | 0.51 | 54.8 | 40.6 | 2.39 |
| COc1ccc(C)cc1S(=O)(=O)N1CCCc2ccc(C(=O)Nc3nc(CC(=O)O)cs3)cc21 | > 100000 | > 100000 | 51 (≈ 102 µM) | 2400 | 1.69 | 41.8 | 54.6 | 3.19 |
| N#Cc1cncc(-c2noc([C@H]3CCCCN3C(=O)COc3ccccc3)n2)c1 | > 100000 | > 100000 | 11 (≈ 28.2 µM) | > 100000 | 6.36 | 759 | 232 | 2.49 |
| NS(=O)(=O)c1ccc(-c2noc(C3C4CC4CN3C(=O)COc3ccccc3)n2)cc1 (configuration not stated) | > 100000 | > 100000 | 45 (≈ 102 µM) | > 100000 | 5.17 | 90.8 | 110 | 2.04 |
| COc1ccc(Cl)cc1S(=O)(=O)N1CCOc2ncc(C(=O)Nc3ccc(C(=O)O)cc3)cc21 | > 100000 | > 100000 | 47 (≈ 93.3 µM) | > 100000 | 0.74 | 169 | 328 | 0.2 |

Further lines, results first:

| IC50 [1] [nM] | IC50 [2] [nM] | solubility kinetic [3] [µg/mL] | IC50 [4] [nM] | Papp [5] [×10⁻⁶ cm/s] | IC50 [6] [nM] | IC50 [7] [nM] | logD [8] | Compound |
| --- | --- | --- | --- | --- | --- | --- | --- | --- |
| > 100000 | > 100000 | 63 (≈ 145 µM) | 43400 | 2.93 | 282 | 201 | 2.75 | CC(=O)Nc1cccc(-c2nc([C@H]3CCCCN3C(=O)COc3ccccc3)n(C)n2)c1 |
| 82800 | 49000 | 62 (≈ 143 µM) | 94200 | 0.95 | 61.6 | 121 | 2.57 | O=C1COc2ccc(-c3n[nH]c([C@H]4CCCCN4C(=O)COc4ccccc4)n3)cc2N1 |
| 6560 | 2890 | 13 (≈ 26.6 µM) | 5490 | 2.93 | 40.7 | 56.1 | 0.65 | COc1ccc(Cl)cc1S(=O)(=O)N1COc2ccc(C(=O)Nc3ccc(C(=O)O)cc3)cc21 |
| 1630 | 686 | 528 (≈ 986 µM) | 1310 | 1.77 | 63 | 190 | 0.57 | COc1ccc(Cl)cc1S(=O)(=O)N1CC(C)c2ccc(C(=O)Nc3ccc(C(=O)O)c(Cl)c3)cc21 (configuration not stated) |
| 82800 | 23900 | 103 (≈ 226 µM) | > 100000 | 2.56 | 175 | 146 | 2.27 | CS(=O)(=O)Nc1cccc(-c2n[nH]c([C@H]3CCCCN3C(=O)COc3ccccc3)n2)c1 |
| 22900 | 4470 | 6 (≈ 13.2 µM) | 2520 | 0.18 | 148 | 200 | 2.21 | COc1ccc(Cl)cc1Sc1c[nH]c2ccc(C(=O)Nc3ccc(C(=O)O)cc3)cc12 |
| 1070 | 3030 | > 598 | > 100000 | 1.57 | 253 | 43.6 | 0.56 | COc1ccc(Cl)cc1S(=O)(=O)Nc1cc(C(=O)Nc2ccc(C(=O)O)cc2)cc(OC)c1OC |
